In patent US7875645B2, “Method for the treatment of CNS disorders with substituted 2-imidazoles or imidazole derivatives” (Hoffman-La Roche Inc., priority 2006, dated 2011):
Where a name gives a salt, the structure may show the parent alone.

Target: T1, TAAR1 (Mus musculus, UniProt Q923Y8)
T1 construct: expressed in transfected cells; host or cells: HEK293 (ATCC # CRL-1573), stably transfected with pIRESneo2 expression plasmid; membranes prepared
Test: Radioligand binding assay on membranes of HEK293 cells stably expressing TAAR1
Settings: mouse TAAR1; radioligand [3H]-rac-2-(1,2,3,4-tetrahydro-1-naphthyl)-2-imidazoline at 60 nM; 4° C., 30 min
Description: For the construction of expression plasmids the coding sequences of human, rat and mouse TAAR 1 were amplified from genomic DNA essentially as described by Lindemann et al.. The Expand High Fidelity PCR System (Roche Diagnostics) was used with 1.5 mM Mg^2+ and purified PCR products were cloned into pCR2.1-TOPO cloning vector (Invitrogen) following the instructions of the manufacturer. PCR products were subcloned into the pIRESneo2 vector (BD Clontech, Palo Alto, Calif.), and expression vectors were sequence verified before introduction in cell lines.
For the generation of stably transfected cell lines HEK293 cells were transfected with the pIRESneo2 expression plasmids containing the TAAR coding sequences (described above) with Lipofectamine 2000 (Invitrogen) according to the instructions of the manufacturer, and 24 hrs post transfection the culture medium was supplemented with 1 mg/ml G418 (Sigma, Buchs, Switzerland). After a culture period of about 10 d clones were isolated, expanded and tested for responsiveness to trace amines (all compounds purchased from Sigma) with the cAMP Biotrak Enzyme immunoassay (EIA) System (Amersham) following the non-acetylation EIA procedure provided by the manufacturer.
Cells at confluence were rinsed with ice-cold phosphate buffered saline without Ca^2+ and Mg^2+ containing 10 mM EDTA and pelleted by centrifugation at 1000 rpm for 5 min at 4° C. The pellet was then washed twice with ice-cold phosphate buffered saline and cell pellet was frozen immediately by immersion in liquid nitrogen and stored until use at −80° C. Cell pellet was then suspended in 20 ml HEPES-NaOH (20 mM), pH 7.4 containing 10 mM EDTA, and homogenized with a Polytron (PT 3000, Kinematica) at 10,000 rpm for 10 s. The homogenate was centrifuged at 48,000×g for 30 min at 4° C. and the pellet resuspended in 20 ml HEPES-NaOH (20 mM), pH 7.4 containing 0.1 mM EDTA (buffer A), and homogenized with a Polytron at 10,000 rpm for 10 s. The homogenate was then centrifuged at 48,000×g for 30 min at 4° C. and the pellet resuspended in 20 ml buffer A, and homogenized with a Polytron at 10,000 rpm for 10 s. Protein concentration was determined by the method of Pierce (Rockford, Ill.). The homogenate was then centrifuged at 48,000×g for 10 min at 4° C., resuspended in HEPES-NaOH (20 mM), pH 7.0 including MgCl2 (10 mM) and […] homogenized with a Polytron at 10,000 rpm for 10 s.
Binding assay was performed at 4° C. in a final volume of 1 ml, and with an incubation time of 30 min. […] Non-specific binding was defined as the amount of [^3H]-rac-2-(1,2,3,4-tetrahydro-1-naphthyl)-2-imidazoline bound in the presence of the appropriate unlabelled ligand (10 μM). Competing ligands were tested in a wide range of concentrations (10 pM-30 μM). […] Each experiment was performed in duplicate. Al incubations were terminated by rapid filtration through UniFilter-96 plates (Packard Instrument Company) and glass filter GF/C, pre-soaked for at least 2 h in polyethylenimine 0.3%, and using a Filtermate 96 Cell Harvester (Packard Instrument Company). The tubes and filters were then washed 3 times with 1 ml aliquots of cold buffer B. Filters were not dried and soaked in Ultima gold (45 μl/well, Packard Instrument Company) and bound radioactivity was counted by a TopCount Microplate Scintillation Counter (Packard Instrument Company).

T1 sequence (Q923Y8 whole entry): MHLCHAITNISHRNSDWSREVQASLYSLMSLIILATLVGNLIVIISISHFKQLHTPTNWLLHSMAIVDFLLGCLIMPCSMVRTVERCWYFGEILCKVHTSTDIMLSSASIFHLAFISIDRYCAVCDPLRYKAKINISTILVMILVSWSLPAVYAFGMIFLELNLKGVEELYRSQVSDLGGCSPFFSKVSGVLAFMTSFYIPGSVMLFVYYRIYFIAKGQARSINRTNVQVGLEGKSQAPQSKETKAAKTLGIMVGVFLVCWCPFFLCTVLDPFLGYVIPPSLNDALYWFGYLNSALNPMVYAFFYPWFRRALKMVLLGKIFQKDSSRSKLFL

| SMILES | Ki [µM] |
| --- | --- |
| COc1ccc2ccccc2c1CC1=NCCN1 [Example 149, 2-(2-Methoxy-naphthalen-1-ylmethyl)-4,5-dihydro-1H-imidazole] | 0.012 |
| Cc1cc(C)c(CC2=NCCN2)c(C)c1 [Example 118, 2-(2,4,6-Trimethyl-benzyl)-4,5-dihydro-1H-imidazole, reference compound] | 0.017 |
| CCc1c(Cl)ccc(F)c1CC1=NCCN1 [Example 198, 2-(3-Chloro-2-ethyl-6-fluoro-benzyl)-4,5-dihydro-1H-imidazole] | 0.036 |
| COc1cccc(Cl)c1CC1=NCCN1 [Example 55, 2-(2-Chloro-6-methoxy-benzyl)-4,5-dihydro-1H-imidazole] | 0.017 |
| COc1cccc(C)c1CC1=NCCN1 [Example 10, 2-(2-Methoxy-6-methyl-benzyl)-4,5-dihydro-1H-imidazole] | 0.023 |
| c1cc(CC2=NCCN2)c2ccoc2c1 [Example 168, 2-Benzofuran-4-ylmethyl-4,5-dihydro-1H-imidazole hydrochloride] | 0.045 |
| CCc1ccc(Br)c(CC)c1CC1=NCCN1 [Example 32, 2-(3-Bromo-2,6-diethyl-benzyl)-4,5-dihydro-1H-imidazole] | 0.005 |
| c1ccc2cc(CC3=NCCN3)ccc2c1 [Example 141, 2-Naphthalen-2-ylmethyl-4,5-dihydro-1H-imidazole] | 0.029 |
| CCOc1cc(CC)c(Cc2ncc[nH]2)c(CC)c1 [Example 215, 2-(4-Ethoxy-2,6-diethyl-benzyl)-1H-imidazole] | 0.029 |
| Cc1cc(C(C)(C)C)c(O)c(C)c1CC1=NCCN1 [Example 117, 6-tert-Butyl-3-(4,5-dihydro-1H-imidazol-2-ylmethyl)-2,4-dimethyl-phenol, reference compound] | 0.008 |
| CCc1cc(Oc2ccccc2)cc(CC)c1Cc1ncc[nH]1 [Example 219, 2-(2,6-Diethyl-4-phenoxy-benzyl)-1H-imidazole] | 0.012 |
| CCc1cc(OC)cc(CC)c1Cc1ncc[nH]1 [Example 210, 2-(2,6-Diethyl-4-methoxy-benzyl)-1H-imidazole] | 0.048 |
| Brc1c(CC2=NCCN2)ccc2ccccc12 [Example 175, 2-(1-Bromo-naphthalen-2-ylmethyl)-4,5-dihydro-1H-imidazole] | 0.011 |
| Cc1c(C)c(C)c(Cc2ncc[nH]2)c(C)c1C [Example 72, 2-Pentamethylphenylmethyl-1H-imidazole] | 0.017 |
| c1ccc2c(CC3=NCCN3)csc2c1 [Example 143, 2-Benzo[b]thiophen-3-ylmethyl-4,5-dihydro-1H-imidazole] | 0.004 |
| c1ccc(C2CC2)c(CC2=NCCN2)c1 [Example 56, 2-(2-Cyclopropyl-benzyl)-4,5-dihydro-1H-imidazole] | 0.025 |
| Cc1ccc2ccoc2c1CC1=NCCN1 [Example 106, 2-(6-Methyl-benzofuran-7-ylmethyl)-4,5-dihydro-1H-imidazole] | 0.017 |
| COc1cccc(CC2=NCCN2)c1OC [Example 122, 2-(2,3-Dimethoxy-benzyl)-4,5-dihydro-1H-imidazole] | 0.025 |
| CCc1ccc(Cl)c(CC)c1CC1=NCCN1 [Example 196, 2-(3-Chloro-2,6-diethyl-benzyl)-4,5-dihydro-1H-imidazole] | 0.023 |
| FC(F)(F)c1cccc(CC2=NCCN2)c1Cl [Example 59, 2-(2-Chloro-3-trifluoromethyl-benzyl)-4,5-dihydro-1H-imidazole] | 0.041 |
| Cc1cc(C)c(C)c(CC2=NCCN2)c1C [Example 116, 2-(2,3,5,6-Tetramethyl-benzyl)-4,5-dihydro-1H-imidazole] | 0.008 |
| Cc1cc(C)c(C)c(Cc2ncc[nH]2)c1C [Example 71, 2-(2,3,5,6-Tetramethyl-benzyl)-1H-imidazole] | 0.01 |
| [3H]c1ccc(CC)c(Cc2ncc[nH]2)c1CC [Example 112, 2-(2,6-Diethyl-3-tritio-benzyl)-1H-imidazole] | 0.025 |

| SMILES | Ki [µM] |
| --- | --- |
| Brc1ccccc1CC1=NCCN1 [Example 124, 2-(2-Bromo-benzyl)-4,5-dihydro-1H-imidazole] | 0.044 |
| c1cc(CC2=NCCN2)c2occc2c1 [Example 107, 2-Benzofuran-7-ylmethyl-4,5-dihydro-1H-imidazole] | 0.022 |
| Clc1cccc(I)c1CC1=NCCN1 [Example 187, 2-(2-Chloro-6-iodo-benzyl)-4,5-dihydro-1H-imidazole] | 0.016 |
| CCc1cccc(OC)c1CC1=NCCN1 [Example 9, 2-(2-Ethyl-6-methoxy-benzyl)-4,5-dihydro-1H-imidazole] | 0.01 |
| Clc1cccc(CC2=NCCN2)c1Cl [Example 17, 2-(2,3-Dichloro-benzyl)-4,5-dihydro-1H-imidazole] | 0.021 |
| CCc1ccc(F)c(CC)c1Cc1ncc[nH]1 [Example 202, 2-(2,6-Diethyl-3-fluoro-benzyl)-1H-imidazole] | 0.034 |
| Cc1cc(C(C)(C)C)cc(C)c1CC1=NCCN1 [Example 114, 2-(4-tert-Butyl-2,6-dimethyl-benzyl)-4,5-dihydro-1H-imidazole, reference compound] | 0.006 |
| CCc1ccc(Oc2ccccc2)c(CC)c1Cc1ncc[nH]1 [Example 220, 2-(2,6-Diethyl-3-phenoxy-benzyl)-1H-imidazole] | 0.013 |
| COc1cc(Br)c(C)c(CC2=NCCN2)c1 [Example 58, 2-(3-Bromo-5-methoxy-2-methyl-benzyl)-4,5-dihydro-1H-imidazole] | 0.03 |
| Oc1ccc2ccccc2c1CC1=NCCN1 [Example 172, 1-(4,5-Dihydro-1H-imidazol-2-ylmethyl)-naphthalen-2-ol hydrochloride] | 0.05 |
| c1ccc2c(CC3=NCCN3)cccc2c1 [Example 140, 2-Naphthalen-1-ylmethyl-4,5-dihydro-1H-imidazole, reference compound] | 0.007 |
| COc1cc(C)c(CC2=NCCN2)c(C)c1 [Example 123, 2-(4-Methoxy-2,6-dimethyl-benzyl)-4,5-dihydro-1H-imidazole] | 0.028 |
| Clc1ccc(CC2=NCCN2)cc1Cl [Example 121, 2-(3,4-Dichloro-benzyl)-4,5-dihydro-1H-imidazole] | 0.023 |
| CCc1cccc(C(C)C)c1CC1=NCCN1 [Example 12, 2-(2-Ethyl-6-isopropyl-benzyl)-4,5-dihydro-1H-imidazole] | 0.03 |
| Cc1cccc(Br)c1CC1=NCCN1 [Example 57, 2-(2-Bromo-6-methyl-benzyl)-4,5-dihydro-1H-imidazole] | 0.029 |
| Nc1c(Cl)cc(CC2=NCCN2)cc1Cl [Example 125, 2,6-Dichloro-4-(4,5-dihydro-1H-imidazol-2-ylmethyl)-phenylamine, reference compound] | 0.048 |
| Cc1sc(C)c(Cc2ncc[nH]2)c1C [Example 110, 2-(2,4,5-Trimethyl-thiophen-3-ylmethyl)-1H-imidazole] | 0.021 |
| Cc1ccc2ccccc2c1CC1=NCCN1 [Example 154, 2-(2-Methyl-naphthalen-1-ylmethyl)-4,5-dihydro-1H-imidazole] | 0.01 |
| Cc1cc(C)c(Cc2ncc[nH]2)c(C)c1 [Example 137, 2-(2,4,6-Trimethyl-benzyl)-1H-imidazole] | 0.038 |
| COc1cc(C)c(CC2=NCCN2)cc1C [Example 33, 2-(4-Methoxy-2,5-dimethyl-benzyl)-4,5-dihydro-1H-imidazole hydrochloride] | 0.014 |
| COc1cc(C)c(Cc2ncc[nH]2)c(C)c1 [Example 73, 2-(4-Methoxy-2,6-dimethyl-benzyl)-1H-imidazole] | 0.049 |
| CC(C1=NCCN1)c1ccc(Cc2ccccc2)cc1 (racemic) [Example 158, rac-2-[1-(4-Benzyl-phenyl)-ethyl]-4,5-dihydro-1H-imidazole hydrochloride] | 0.021 |
